# Tested on: subjects with mIDH1 advanced AML
# Test: Phase I study: safety and tolerability (TEAE, DLT, MTD, ECG)
# Format: in vivo
# Procedure: This study was an open-label, nonrandomized, multicenter phase I trial. Subjects were screened at 13 hospital sites in 2 countries (USA and Germany). The study was to consist of dose-escalation followed by dose-expansion. The MTD identified in dose-escalation was to be used in the dose-expansion. If MTD was not reached in dose-escalation, a dose for the expansion would be selected based on available PK, pharmacodynamic, safety, and efficacy data. BAY1436032 was administered twice-daily (BID) in continuous 28-day cycles. In dose-escalation, up to 9 evaluable subjects could be enrolled per cohort, with a minimum of 3 dose-limiting toxicity (DLT)-free evaluable subjects required prior to escalating to the next highest dose. Bayesian dose-DLT modeling was performed to help guide dosing decisions.
# DLTs were differentially defined for nonhematopoietic versus hematopoietic toxicities. Nonhematopoietic toxicities of ≥grade 3 occurring during the first cycle of treatment were to be considered DLTs with the following exceptions: (1) Alopecia and nausea controlled by medical management; (2) Tumor lysis syndrome if successfully managed clinically and resolved within 7 days without any end-organ damage; (3) Differentiation syndrome (DS) if successfully managed clinically and resolved within 7 days without any end-organ damage; (4) Asymptomatic ≥grade 3 electrolyte abnormalities not considered clinically significant by the investigator. […] For certain toxicities such as laboratory assessments without a clear clinical correlate, a discussion between the investigator and the sponsor determined whether the adverse event (AE) should be assessed as a DLT.
# DLTs identified during the first cycle of treatment were used to guide dose-escalation decisions and to determine the MTD, and if safety issues appeared in subsequent cycles they were also to be considered. Hydroxyurea was permitted during the first cycle if white blood cell (WBC) exceeded 20 × 10^9/L and was also permitted for treatment of DS.
# Safety and tolerability were evaluated by analysis of adverse events, physical examinations, vital signs, ECOG performance status, and various laboratory assessments. For safety monitoring, subjects were scheduled for clinic visits every week for the initial three cycles of treatment, after which time visits could be reduced to every-other-week with investigator and sponsor agreement. Cardiac function was assessed with triplicate 12-lead electrocardiograms (ECG) at screening, C1-D1, C1-D2, C1-D15, D1 of every subsequent cycle, and at treatment end. […] AEs are presented by the Medical Dictionary for Regulatory Activities (MedDRA) v21.1.
structure (smiles),measurement,setting,value
C[C@H]1C[C@@H](n2c(Nc3ccc(OC(F)(F)F)cc3)nc3cc(CCC(=O)O)ccc32)CC(C)(C)C1 [BAY1436032],TEAE Hypokalaemia Grade 1,"1200 mg BID, n=7",1
same,TEAE Hypokalaemia Grade 2,"1200 mg BID, n=7",0
same,TEAE Hypokalaemia Grade 3,"1200 mg BID, n=7",0
same,TEAE Hyponatraemia Grade 1,"1200 mg BID, n=7",0
same,TEAE Hyponatraemia Grade 3,"1200 mg BID, n=7",0
same,TEAE Hypophosphataemia Grade 1,"1200 mg BID, n=7",0
same,TEAE Hypophosphataemia Grade 2,"1200 mg BID, n=7",0
same,TEAE Leukocytosis Grade 2,"1200 mg BID, n=7",1
same,TEAE Leukocytosis Grade 3,"1200 mg BID, n=7",0
same,TEAE Lung infection Grade 3,"1200 mg BID, n=7",1
same,TEAE Lung infection Grade 5,"1200 mg BID, n=7",0
same,TEAE Nausea Grade 1,"1200 mg BID, n=7",2
same,TEAE Nausea Grade 2,"1200 mg BID, n=7",0
same,TEAE Nausea Grade 3,"1200 mg BID, n=7",0
same,TEAE Oedema peripheral Grade 1,"1200 mg BID, n=7",2
same,TEAE Oedema peripheral Grade 3,"1200 mg BID, n=7",0
same,TEAE Pain in extremity Grade 1,"1200 mg BID, n=7",1
same,TEAE Pain in extremity Grade 2,"1200 mg BID, n=7",0
same,TEAE Pneumonia Grade 1,"1200 mg BID, n=7",0
same,TEAE Pneumonia Grade 2,"1200 mg BID, n=7",1
same,TEAE Pneumonia Grade 3,"1200 mg BID, n=7",1
same,TEAE Pneumonia fungal Grade 2,"1200 mg BID, n=7",0
same,TEAE Pneumonia fungal Grade 3,"1200 mg BID, n=7",0
same,TEAE Pneumonia fungal Grade 4,"1200 mg BID, n=7",0
same,TEAE Productive cough Grade 1,"1200 mg BID, n=7",1
same,TEAE Productive cough Grade 2,"1200 mg BID, n=7",0
same,TEAE Pyrexia Grade 1,"1200 mg BID, n=7",1
same,TEAE Pyrexia Grade 2,"1200 mg BID, n=7",0
same,TEAE Pyrexia Grade 3,"1200 mg BID, n=7",0
same,TEAE Rash Grade 1,"1200 mg BID, n=7",1
same,TEAE Rash Grade 2,"1200 mg BID, n=7",0
same,TEAE Sepsis Grade 4,"1200 mg BID, n=7",0
same,TEAE Sepsis Grade 5,"1200 mg BID, n=7",0
same,TEAE Sinus tachycardia Grade 1,"1200 mg BID, n=7",0
same,TEAE Thrombocytopenia Grade 4,"1200 mg BID, n=7",1
same,TEAE Vomiting Grade 1,"1200 mg BID, n=7",0
same,TEAE Weight decreased Grade 1,"1200 mg BID, n=7",1
same,TEAE Weight decreased Grade 2,"1200 mg BID, n=7",2
same,TEAE Weight decreased Grade 3,"1200 mg BID, n=7",0
same,Related TEAE Decreased appetite Grade 1,"1500 mg BID, n=9",0
same,Related TEAE Decreased appetite Grade 2,"1500 mg BID, n=9",0
same,Related TEAE Diarrhea Grade 2,"1500 mg BID, n=9",0
same,Related TEAE Differentiation syndrome Grade 2,"1500 mg BID, n=9",1
same,Related TEAE Differentiation syndrome Grade 3,"1500 mg BID, n=9",0
same,Related TEAE Dyspnea Grade 1,"1500 mg BID, n=9",0
same,Related TEAE Dyspnea Grade 2,"1500 mg BID, n=9",0
same,Related TEAE Fatigue Grade 1,"1500 mg BID, n=9",0
same,Related TEAE Fatigue Grade 2,"1500 mg BID, n=9",0
same,Related TEAE Fatigue Grade 3,"1500 mg BID, n=9",1
same,Related TEAE Hypomagnesaemia Grade 1,"1500 mg BID, n=9",1
same,Related TEAE Nausea Grade 1,"1500 mg BID, n=9",1
same,Related TEAE Nausea Grade 2,"1500 mg BID, n=9",0
same,Related TEAE Sinus tachycardia Grade 1,"1500 mg BID, n=9",1
same,Related TEAE Vomiting Grade 1,"1500 mg BID, n=9",1
same,TEAE Abdominal pain upper Grade 1,"1500 mg BID, n=9",2
same,TEAE Abdominal pain upper Grade 2,"1500 mg BID, n=9",1
same,TEAE Acute kidney injury Grade 1,"1500 mg BID, n=9",0
same,TEAE Acute kidney injury Grade 2,"1500 mg BID, n=9",0
same,TEAE Acute kidney injury Grade 3,"1500 mg BID, n=9",0
same,TEAE Anaemia Grade 3,"1500 mg BID, n=9",0
same,TEAE Anaemia Grade 4,"1500 mg BID, n=9",0
same,TEAE Anxiety Grade 1,"1500 mg BID, n=9",0
same,TEAE Anxiety Grade 2,"1500 mg BID, n=9",1
same,TEAE Arthralgia Grade 1,"1500 mg BID, n=9",1
same,TEAE Arthralgia Grade 2,"1500 mg BID, n=9",1
same,TEAE Constipation Grade 1,"1500 mg BID, n=9",3
same,TEAE Constipation Grade 2,"1500 mg BID, n=9",0
same,TEAE Contusion Grade 1,"1500 mg BID, n=9",1
same,TEAE Contusion Grade 2,"1500 mg BID, n=9",1
same,TEAE Cough Grade 1,"1500 mg BID, n=9",0
same,TEAE Cough Grade 2,"1500 mg BID, n=9",1
same,TEAE Decreased appetite Grade 1,"1500 mg BID, n=9",2
same,TEAE Decreased appetite Grade 2,"1500 mg BID, n=9",1
same,TEAE Decreased appetite Grade 3,"1500 mg BID, n=9",1
same,TEAE Diarrhea Grade 1,"1500 mg BID, n=9",2
same,TEAE Diarrhea Grade 2,"1500 mg BID, n=9",1
same,TEAE Dry skin Grade 1,"1500 mg BID, n=9",1
same,TEAE Dyspnoea Grade 1,"1500 mg BID, n=9",1
same,TEAE Dyspnoea Grade 2,"1500 mg BID, n=9",0
same,TEAE Dyspnoea Grade 3,"1500 mg BID, n=9",1
same,TEAE Epistaxis Grade 1,"1500 mg BID, n=9",2
same,TEAE Epistaxis Grade 2,"1500 mg BID, n=9",0
same,TEAE Epistaxis Grade 3,"1500 mg BID, n=9",0
same,TEAE Fall Grade 1,"1500 mg BID, n=9",2
same,TEAE Fatigue Grade 1,"1500 mg BID, n=9",1
same,TEAE Fatigue Grade 2,"1500 mg BID, n=9",1
same,TEAE Fatigue Grade 3,"1500 mg BID, n=9",2
same,TEAE Febrile neutropenia Grade 3,"1500 mg BID, n=9",2
same,TEAE General physical health deterioration Grade 3,"1500 mg BID, n=9",2
same,TEAE General physical health deterioration Grade 5,"1500 mg BID, n=9",1
same,TEAE Gingivitis Grade 1,"1500 mg BID, n=9",0
same,TEAE Haematuria Grade 1,"1500 mg BID, n=9",0
same,TEAE Haematuria Grade 2,"1500 mg BID, n=9",0
same,TEAE Haematuria Grade 3,"1500 mg BID, n=9",1
same,TEAE Headache Grade 1,"1500 mg BID, n=9",0
same,TEAE Headache Grade 2,"1500 mg BID, n=9",0
same,TEAE Headache Grade 3,"1500 mg BID, n=9",1
same,TEAE Hyperkalaemia Grade 1,"1500 mg BID, n=9",0
same,TEAE Hyperkalaemia Grade 4,"1500 mg BID, n=9",0
same,TEAE Hypertension Grade 2,"1500 mg BID, n=9",2
same,TEAE Hypertension Grade 3,"1500 mg BID, n=9",0
same,TEAE Hyperuricaemia Grade 1,"1500 mg BID, n=9",1
same,TEAE Hyperuricaemia Grade 3,"1500 mg BID, n=9",0
same,TEAE Hypokalaemia Grade 1,"1500 mg BID, n=9",0
same,TEAE Hypokalaemia Grade 2,"1500 mg BID, n=9",1
same,TEAE Hypokalaemia Grade 3,"1500 mg BID, n=9",1
same,TEAE Hyponatraemia Grade 1,"1500 mg BID, n=9",0
same,TEAE Hyponatraemia Grade 3,"1500 mg BID, n=9",1
same,TEAE Hypophosphataemia Grade 1,"1500 mg BID, n=9",1
same,TEAE Hypophosphataemia Grade 2,"1500 mg BID, n=9",1
same,TEAE Leukocytosis Grade 2,"1500 mg BID, n=9",0
same,TEAE Leukocytosis Grade 3,"1500 mg BID, n=9",1
same,TEAE Lung infection Grade 3,"1500 mg BID, n=9",0
same,TEAE Lung infection Grade 5,"1500 mg BID, n=9",0
same,TEAE Nausea Grade 1,"1500 mg BID, n=9",1
same,TEAE Nausea Grade 2,"1500 mg BID, n=9",1
same,TEAE Nausea Grade 3,"1500 mg BID, n=9",2
same,TEAE Oedema peripheral Grade 1,"1500 mg BID, n=9",0
same,TEAE Oedema peripheral Grade 3,"1500 mg BID, n=9",1
same,TEAE Pain in extremity Grade 1,"1500 mg BID, n=9",0
same,TEAE Pain in extremity Grade 2,"1500 mg BID, n=9",1
same,TEAE Pneumonia Grade 1,"1500 mg BID, n=9",1
same,TEAE Pneumonia Grade 2,"1500 mg BID, n=9",0
same,TEAE Pneumonia Grade 3,"1500 mg BID, n=9",1
same,TEAE Pneumonia fungal Grade 2,"1500 mg BID, n=9",1
same,TEAE Pneumonia fungal Grade 3,"1500 mg BID, n=9",1
same,TEAE Pneumonia fungal Grade 4,"1500 mg BID, n=9",1
same,TEAE Productive cough Grade 1,"1500 mg BID, n=9",0
same,TEAE Productive cough Grade 2,"1500 mg BID, n=9",1
same,TEAE Pyrexia Grade 1,"1500 mg BID, n=9",2
same,TEAE Pyrexia Grade 2,"1500 mg BID, n=9",0
same,TEAE Pyrexia Grade 3,"1500 mg BID, n=9",3
same,TEAE Rash Grade 1,"1500 mg BID, n=9",0
same,TEAE Rash Grade 2,"1500 mg BID, n=9",2
same,TEAE Sepsis Grade 4,"1500 mg BID, n=9",0

# Reference: article PMC7584476, “Safety and efficacy of BAY1436032 in IDH1-mutant AML: phase I study results” (Leukemia, 2020)
